Laboratory results from patent US20230148005A1, “MACROCYCLIC COMPOUNDS AND USES THEREOF” (THESEUS PHARMACEUTICALS, INC., priority 2020, published 2023).
Where two headings read alike, the source gives them in different places.

Key:
Ba/F3 Parental = test: Ba/F3 viability assay (CellTiter-Glo), parental; type: cell-based
From the text: (§1) Inhibition of cell proliferation can be studied using Ba/F3 viability assays, including the Promega CellTiter-Glo cell viability assay. This assay can be used to study the effect of compounds described herein in the following assays: (1) Ba/F3 Parental; (2) Ba/F3 EGFR-Del19/T790M; (3); Ba/F3 EGFR-Del19/C797S; and (4) Ba/F3 EGFR-Del19/T790M/C797S.

EGFR^L58R/T790M = EGFR^L58R/T790M (Homo sapiens, UniProt P00533, L858R/T790M); test: in vitro kinase assay (HTRF KinEASE-TK kit), LT; type: biochemical; conditions: kinase inhibition
Sequence of EGFR^L58R/T790M (P00533 25-1210 T790M/L858R): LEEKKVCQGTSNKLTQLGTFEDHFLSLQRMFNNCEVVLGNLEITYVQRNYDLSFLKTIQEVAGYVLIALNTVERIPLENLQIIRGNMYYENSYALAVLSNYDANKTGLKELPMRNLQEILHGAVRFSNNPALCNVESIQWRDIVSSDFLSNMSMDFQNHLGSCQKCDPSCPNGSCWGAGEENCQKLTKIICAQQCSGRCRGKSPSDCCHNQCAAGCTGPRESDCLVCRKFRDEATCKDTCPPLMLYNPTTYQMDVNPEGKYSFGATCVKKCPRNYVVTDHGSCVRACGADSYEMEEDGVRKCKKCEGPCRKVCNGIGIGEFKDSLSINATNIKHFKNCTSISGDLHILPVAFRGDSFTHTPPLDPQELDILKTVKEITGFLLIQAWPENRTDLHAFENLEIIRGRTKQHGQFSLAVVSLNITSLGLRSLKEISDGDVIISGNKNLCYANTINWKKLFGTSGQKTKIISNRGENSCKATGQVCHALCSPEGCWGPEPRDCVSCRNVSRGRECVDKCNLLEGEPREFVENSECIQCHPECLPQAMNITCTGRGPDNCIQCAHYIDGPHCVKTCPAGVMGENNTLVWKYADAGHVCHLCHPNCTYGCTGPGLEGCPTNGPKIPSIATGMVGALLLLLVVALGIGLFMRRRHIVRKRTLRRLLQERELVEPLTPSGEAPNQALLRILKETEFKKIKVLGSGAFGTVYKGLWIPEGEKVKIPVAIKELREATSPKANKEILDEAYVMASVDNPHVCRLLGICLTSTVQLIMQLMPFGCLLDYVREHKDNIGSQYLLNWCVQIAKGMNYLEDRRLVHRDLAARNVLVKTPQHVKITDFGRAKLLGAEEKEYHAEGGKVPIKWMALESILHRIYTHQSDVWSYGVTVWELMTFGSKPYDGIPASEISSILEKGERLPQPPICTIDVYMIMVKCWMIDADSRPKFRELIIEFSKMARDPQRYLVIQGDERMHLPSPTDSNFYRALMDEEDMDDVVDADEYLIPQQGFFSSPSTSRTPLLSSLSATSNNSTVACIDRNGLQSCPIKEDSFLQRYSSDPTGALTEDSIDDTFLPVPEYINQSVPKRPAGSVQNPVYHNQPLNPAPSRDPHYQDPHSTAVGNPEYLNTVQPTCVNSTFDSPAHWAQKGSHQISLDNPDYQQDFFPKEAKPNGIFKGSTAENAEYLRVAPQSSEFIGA
From the text: (§2) Assays using an in vitro kinase assay kit (HTRF KinEASE-TK kit) can be used to study the inhibitory activity of compounds described herein with respect to EGFR mutants such as EGFR^L858R, EGFR^L58R/T790M, and EGFR^L858R/T790M/C^797S.

Ba/F3 EGFR-Del19/T790M = Ba/F3 EGFR-Del19/T790M (Homo sapiens, UniProt P00533, T790M, cells depend on it, form not given); test: Ba/F3 viability assay (CellTiter-Glo), DT; type: cell-based; conditions: anti-proliferation, read-out: BaF3 DT IC50
Sequence of Ba/F3 EGFR-Del19/T790M (P00533 with tags, fused parts or gaps DEL746-750/T790M, form open): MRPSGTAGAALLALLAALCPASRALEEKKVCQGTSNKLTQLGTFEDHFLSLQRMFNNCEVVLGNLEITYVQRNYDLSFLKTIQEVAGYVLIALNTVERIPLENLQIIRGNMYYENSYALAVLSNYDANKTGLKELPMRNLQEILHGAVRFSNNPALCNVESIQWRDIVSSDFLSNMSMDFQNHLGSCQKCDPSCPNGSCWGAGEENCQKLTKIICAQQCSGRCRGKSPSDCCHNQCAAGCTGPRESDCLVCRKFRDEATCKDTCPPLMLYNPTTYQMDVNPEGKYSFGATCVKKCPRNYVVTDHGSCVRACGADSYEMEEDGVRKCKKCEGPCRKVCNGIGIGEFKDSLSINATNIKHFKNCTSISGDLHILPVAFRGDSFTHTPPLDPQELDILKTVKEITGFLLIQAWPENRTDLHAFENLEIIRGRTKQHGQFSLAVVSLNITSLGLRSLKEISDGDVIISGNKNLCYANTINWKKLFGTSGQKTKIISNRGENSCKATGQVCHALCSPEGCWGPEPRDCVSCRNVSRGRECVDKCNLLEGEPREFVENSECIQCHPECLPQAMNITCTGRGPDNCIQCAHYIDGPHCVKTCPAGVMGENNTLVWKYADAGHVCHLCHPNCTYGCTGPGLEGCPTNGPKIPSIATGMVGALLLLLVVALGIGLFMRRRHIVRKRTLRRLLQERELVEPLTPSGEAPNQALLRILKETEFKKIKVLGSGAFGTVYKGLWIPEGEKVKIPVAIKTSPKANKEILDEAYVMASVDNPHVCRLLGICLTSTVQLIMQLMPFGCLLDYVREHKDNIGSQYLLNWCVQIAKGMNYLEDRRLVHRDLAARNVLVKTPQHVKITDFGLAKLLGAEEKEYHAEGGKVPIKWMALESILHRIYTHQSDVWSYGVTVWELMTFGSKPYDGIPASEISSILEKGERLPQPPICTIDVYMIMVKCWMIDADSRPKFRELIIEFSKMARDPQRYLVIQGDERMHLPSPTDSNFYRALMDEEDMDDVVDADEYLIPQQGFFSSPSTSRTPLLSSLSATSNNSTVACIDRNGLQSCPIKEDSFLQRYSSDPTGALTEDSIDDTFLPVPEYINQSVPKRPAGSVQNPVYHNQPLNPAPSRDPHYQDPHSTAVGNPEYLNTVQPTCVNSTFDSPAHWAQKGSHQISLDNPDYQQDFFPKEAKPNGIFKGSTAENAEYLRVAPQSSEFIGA
From the text: as §1

EGFR^L858R = EGFR^L858R (Homo sapiens, UniProt P00533, L858R); test: in vitro kinase assay (HTRF KinEASE-TK kit), L; type: biochemical; conditions: kinase inhibition
From the text: as §2

EGFR^L858R/T790M/C^797S = EGFR^L858R/T790M/C^797S (Homo sapiens, UniProt P00533, C797S/L858R/T790M); test: in vitro kinase assay (HTRF KinEASE-TK kit), LTC; type: biochemical; conditions: kinase inhibition
Sequence of EGFR^L858R/T790M/C^797S (P00533 25-1210 T790M/C797S/L858R): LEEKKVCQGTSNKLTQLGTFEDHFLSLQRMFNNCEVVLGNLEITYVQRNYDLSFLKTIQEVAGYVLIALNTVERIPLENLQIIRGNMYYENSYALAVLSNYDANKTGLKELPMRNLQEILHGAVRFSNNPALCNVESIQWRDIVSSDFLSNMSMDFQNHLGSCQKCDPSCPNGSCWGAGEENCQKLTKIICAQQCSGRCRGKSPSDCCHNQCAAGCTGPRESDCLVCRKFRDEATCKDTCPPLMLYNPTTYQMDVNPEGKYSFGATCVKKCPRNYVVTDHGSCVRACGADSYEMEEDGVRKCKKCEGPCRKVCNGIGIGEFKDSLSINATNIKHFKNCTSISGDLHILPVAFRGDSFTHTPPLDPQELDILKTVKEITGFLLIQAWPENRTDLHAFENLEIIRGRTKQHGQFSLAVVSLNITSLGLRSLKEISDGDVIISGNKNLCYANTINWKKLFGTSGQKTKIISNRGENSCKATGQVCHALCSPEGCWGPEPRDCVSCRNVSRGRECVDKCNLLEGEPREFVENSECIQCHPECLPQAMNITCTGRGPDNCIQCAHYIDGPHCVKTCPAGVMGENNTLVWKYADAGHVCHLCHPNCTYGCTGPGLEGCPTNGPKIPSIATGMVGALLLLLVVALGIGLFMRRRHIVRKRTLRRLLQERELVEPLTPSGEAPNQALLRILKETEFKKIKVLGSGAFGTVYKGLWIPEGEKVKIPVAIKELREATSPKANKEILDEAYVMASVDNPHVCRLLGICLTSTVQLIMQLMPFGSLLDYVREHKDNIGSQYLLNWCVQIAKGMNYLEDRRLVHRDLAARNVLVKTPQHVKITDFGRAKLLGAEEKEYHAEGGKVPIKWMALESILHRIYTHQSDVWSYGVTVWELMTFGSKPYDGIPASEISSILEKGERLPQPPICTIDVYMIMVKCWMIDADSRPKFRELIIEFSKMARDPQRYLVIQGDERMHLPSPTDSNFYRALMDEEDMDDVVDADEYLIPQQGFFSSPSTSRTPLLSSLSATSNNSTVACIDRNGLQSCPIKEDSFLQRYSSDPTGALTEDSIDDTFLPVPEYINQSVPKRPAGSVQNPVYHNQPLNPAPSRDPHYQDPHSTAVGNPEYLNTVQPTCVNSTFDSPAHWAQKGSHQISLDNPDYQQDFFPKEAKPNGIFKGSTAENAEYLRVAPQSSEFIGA
From the text: as §2

Ba/F3 EGFR-Del19/C797S = Ba/F3 EGFR-Del19/C797S (Homo sapiens, UniProt P00533, C797S, cells depend on it, form not given); test: Ba/F3 viability assay (CellTiter-Glo), DC; type: cell-based; conditions: anti-proliferation, read-out: BaF3 DC IC50
Sequence of Ba/F3 EGFR-Del19/C797S (P00533 with tags, fused parts or gaps DEL746-750/C797S, form open): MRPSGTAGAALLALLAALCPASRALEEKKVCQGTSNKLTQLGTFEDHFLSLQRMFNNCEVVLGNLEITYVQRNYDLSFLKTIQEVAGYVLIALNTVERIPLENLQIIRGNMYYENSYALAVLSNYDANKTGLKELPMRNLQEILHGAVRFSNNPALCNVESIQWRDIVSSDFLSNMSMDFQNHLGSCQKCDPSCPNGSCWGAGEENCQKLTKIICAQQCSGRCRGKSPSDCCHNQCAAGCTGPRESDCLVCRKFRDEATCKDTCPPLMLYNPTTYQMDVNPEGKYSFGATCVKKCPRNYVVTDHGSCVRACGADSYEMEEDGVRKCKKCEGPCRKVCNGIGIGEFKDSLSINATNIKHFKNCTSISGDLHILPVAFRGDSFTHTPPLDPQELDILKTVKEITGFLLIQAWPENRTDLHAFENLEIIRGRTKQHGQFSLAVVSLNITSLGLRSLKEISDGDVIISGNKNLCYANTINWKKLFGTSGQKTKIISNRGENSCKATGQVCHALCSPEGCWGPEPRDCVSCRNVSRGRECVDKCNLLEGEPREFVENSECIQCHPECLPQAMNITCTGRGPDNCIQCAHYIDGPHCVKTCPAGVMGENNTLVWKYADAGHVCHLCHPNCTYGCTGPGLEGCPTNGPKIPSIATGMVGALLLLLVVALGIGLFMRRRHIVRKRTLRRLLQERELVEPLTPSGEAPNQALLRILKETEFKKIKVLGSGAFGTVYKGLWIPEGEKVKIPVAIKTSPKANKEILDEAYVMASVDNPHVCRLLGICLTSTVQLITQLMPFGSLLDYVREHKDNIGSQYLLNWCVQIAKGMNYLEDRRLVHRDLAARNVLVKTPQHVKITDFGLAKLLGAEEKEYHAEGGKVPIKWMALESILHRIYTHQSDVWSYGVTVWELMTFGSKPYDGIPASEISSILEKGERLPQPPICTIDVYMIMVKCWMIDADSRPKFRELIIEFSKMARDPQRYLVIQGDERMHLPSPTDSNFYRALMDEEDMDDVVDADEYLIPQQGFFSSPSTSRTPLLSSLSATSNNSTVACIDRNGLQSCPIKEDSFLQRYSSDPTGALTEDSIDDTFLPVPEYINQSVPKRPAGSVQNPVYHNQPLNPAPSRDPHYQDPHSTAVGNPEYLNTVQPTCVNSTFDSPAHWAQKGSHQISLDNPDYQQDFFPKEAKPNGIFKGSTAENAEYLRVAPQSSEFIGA
From the text: as §1

[1] = molecular target: Ba/F3 EGFR-Del19/T790M/C797S (Homo sapiens, UniProt P00533, T790M/C797S, cells depend on it, form not given); test: Ba/F3 viability assay (CellTiter-Glo), DTC; type: cell-based; conditions: anti-proliferation, read-out: BaF3 DTC IC50
From the text: as §1

[2] = Mus musculus, BaF3, anti-proliferation
[3] = anti-proliferation, read-out: BaF3 parental IC50

SMILES	IC50 (Ba/F3 Parental; [2]) [nM]	IC50 (EGFR^L58R/T790M) [nM]	GI50 (Ba/F3 EGFR-Del19/T790M) [nM]	IC50 (EGFR^L858R) [nM]	IC50 (EGFR^L858R/T790M/C^797S) [nM]	GI50 (Ba/F3 EGFR-Del19/C797S) [nM]	GI50 [1] [nM]	IC50 (Ba/F3 Parental; [3]) [nM]
CN1CCN(C(=O)C2CCN(c3nn4c5cc(ncc35)Nc3ccnc(n3)-c3cnn(C)c3OCCC4)C2)CC1 (centres unmarked) [(66)]	≥ 1000	< 10	100 to 1000	10 to 100	< 10	100 to 1000	100 to 1000	–
CC1CCOc2c(cnn2C)-c2nccc(n2)Nc2cc3c(cn2)c(-c2ccn(C)n2)nn31 (centres unmarked) [(69)]	≥ 1000	< 10	10 to 100	10 to 100	< 10	10 to 100	10 to 100	–
C[C@H]1CCOc2c(cnn2C)-c2nccc(n2)Nc2cc3c(cn2)c(N2CCC2)nn31 [(70)]	–	< 10	< 10	< 10	< 10	10 to 100	10 to 100	100 to 1000
CC1CCCOc2c(cnn2C)-c2nccc(n2)Nc2cc3c(cn2)c(N2CCCC2)nn31 (centres unmarked) [(71)]	100 to 1000	< 10	10 to 100	< 10	< 10	10 to 100	10 to 100	–
CC(C)n1ncc2c1OCCCC(C)n1nc(N3CCC3)c3cnc(cc31)Nc1ccnc-2n1 (centres unmarked) [(74)]	≥ 1000	< 10	100 to 1000	100 to 1000	< 10	100 to 1000	100 to 1000	–
CC1CCCOc2c(cnn2C)-c2nccc(n2)Nc2cc3c(cn2)c(-c2ccnn2C)nn31 (centres unmarked) [(75)]	100 to 1000	< 10	10 to 100	10 to 100	< 10	10 to 100	10 to 100	–
CCn1cc(-c2nn3c4cc(ncc24)Nc2ccnc(n2)-c2cnn(C)c2OCCC3C)cc1CN1CCN(C)CC1 (centres unmarked) [(76)]	10 to 100	< 10	< 10	< 10	< 10	< 10	< 10	–
C[C@@H]1CCCOc2c(cnn2C)-c2nccc(n2)Nc2cc3c(cn2)c(N2CCC2)nn31 [(77)]	–	10 to 100	≥ 1000	≥ 1000	100 to 1000	100 to 1000	100 to 1000	≥ 1000
C[C@H]1CCCOc2c(cnn2C)-c2nccc(n2)Nc2cc3c(cn2)c(N2CCC2)nn31 [(78)]	100 to 1000	< 10	10 to 100	10 to 100	< 10	10 to 100	10 to 100	–
CCn1cc(-c2nn3c4cc(ncc24)Nc2ccnc(n2)-c2cnn(C)c2OCCC3C)cc1CN1CCN(C(C)C)CC1 (centres unmarked) [(80)]	10 to 100	< 10	< 10	< 10	< 10	< 10	< 10	–
CCn1cc(CN2CCN(C)CC2)cc1-c1nn2c3cc(ncc13)Nc1ccnc(n1)-c1cnn(C)c1OCCC2C (centres unmarked) [(82)]	10 to 100	< 10	10 to 100	100 to 1000	< 10	10 to 100	10 to 100	–
CC1CCOc2c(cnn2C)-c2nccc(n2)Nc2cc3c(cn2)c(-c2cc(CN4CCN(C)CC4)cn2C)nn31 (centres unmarked) [(83)]	10 to 100	< 10	10 to 100	10 to 100	< 10	10 to 100	10 to 100	–
CC1CCCOc2c(cnn2C)-c2nccc(n2)Nc2cc3c(cn2)c(-c2cc(CN4CCN(C)CC4)nn2C)nn31 (centres unmarked) [(84)]	100 to 1000	< 10	10 to 100	10 to 100	< 10	100 to 1000	10 to 100	–
CCn1ccc(-c2nn3c4cc(ncc24)Nc2ccnc(n2)-c2cnn(C)c2OCCCC3C)n1 (centres unmarked) [(85)]	≥ 1000	< 10	< 10	10 to 100	< 10	10 to 100	< 10	–
CCn1nccc1-c1nn2c3cc(ncc13)Nc1ccnc(n1)-c1cnn(C)c1OCCCC2C (centres unmarked) [(86)]	≥ 1000	< 10	10 to 100	10 to 100	< 10	10 to 100	10 to 100	–
CC1CCCOc2c(cnn2C)-c2nccc(n2)Nc2cc3c(cn2)c(-c2ccc(CN4CCN(C5CC5)CC4)o2)nn31 (centres unmarked) [(87)]	100 to 1000	< 10	10 to 100	10 to 100	< 10	10 to 100	< 10	–
CCn1cc(C(=O)N2CCN(C)CC2)cc1-c1nn2c3cc(ncc13)Nc1ccnc(n1)-c1cnn(C)c1OCCC2C (centres unmarked) [(88)]	100 to 1000	< 10	100 to 1000	10 to 100	< 10	100 to 1000	100 to 1000	–
Cc1nn(CCC(C)(C)O)cc1-c1nn2c3cc(ncc13)Nc1ccnc(n1)-c1cnn(C)c1OCCCC2C (centres unmarked) [(89)]	100 to 1000	< 10	10 to 100	10 to 100	< 10	10 to 100	10 to 100	–
Cc1c(-c2nn3c4cc(ncc24)Nc2ccnc(n2)-c2cnn(C)c2OCCCC3C)cnn1CCC(C)(C)O (centres unmarked) [(92)]	100 to 1000	< 10	10 to 100	10 to 100	< 10	10 to 100	10 to 100	–
CC(C)N1CCN(CC2CCN(c3nn4c5cc(ncc35)Nc3ccnc(n3)-c3cnn(C)c3OCC[C@@H]4C)C2)CC1 (some centres unmarked) [(93)]	10 to 100	< 10	< 10	< 10	< 10	< 10	< 10	–
CC1CCCOc2c(cnn2C)-c2nccc(n2)Nc2cc3c(cn2)c(-c2nnc(CN4CCN(C)CC4)o2)nn31 (centres unmarked) [(94)]	≥ 1000	< 10	100 to 1000	100 to 1000	< 10	100 to 1000	100 to 1000	–
C[C@H]1CCOc2c(cnn2C)-c2nccc(n2)Nc2cc3c(cn2)c(-c2cc(CN4CCN(C)CC4)n(C)n2)nn31 [(95)]	100 to 1000	< 10	10 to 100	< 10	< 10	10 to 100	10 to 100	–
C[C@H]1CCOc2c(cnn2C)-c2nccc(n2)Nc2cc3c(cn2)c(-c2ccnc(N4CCN(C)CC4)c2)nn31 [(96)]	100 to 1000	< 10	10 to 100	< 10	< 10	10 to 100	10 to 100	–
